Test results as given in PubChem BioAssay (NCI).
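Growth conditions: 96-well plates. Treatment: test compound, 48 hours, 5 concentrations. Analysis: linear interpolation between bracketing concentrations; unreached endpoints set to highest concentration. Abbreviation: GI50, concentration required for 50% inhibition of growth. TGI is the concentration that stops growth completely.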

Tests used:
Test in all cases: growth of human tumour cells (NCI), 48 h
[1] = system: COLO 205 colon
[2] = system: TK-10 renal
[3] = system: UO-31 renal
[4] = system: A549 NSCLC
[5] = system: SNB-19 CNS
[6] = system: CAKI-1 renal
[7] = system: DU-145 prostate
[8] = system: SK-MEL-28 melanoma
[9] = system: K-562 leukemia
[10] = system: SF-295 CNS
[11] = system: A498 renal
[12] = system: RPMI-8226 leukemia
[13] = system: NCI-H522 lung
[14] = system: SF-268 CNS
[15] = system: SNB-75 CNS
[16] = system: MOLT-4 leukemia
[17] = system: KM12 colon
[18] = system: SR leukemia
[19] = system: 786-0 renal
[20] = system: SW-620 colon
[21] = system: MCF7 breast
[22] = system: HCT-116 colon
[23] = system: HCC-2998 colon
[24] = system: HL-60(TB) leukemia
[25] = system: SK-OV-3 ovarian
[26] = system: IGROV1 ovarian
[27] = system: MDA-MB-435
[28] = system: BT-549 breast
[29] = system: SN12C renal
[30] = system: PC-3 prostate
[31] = system: SF-539 CNS
[32] = system: CCRF-CEM leukemia
[33] = system: OVCAR-4 ovarian
[34] = system: HOP-92 NSCLC
[35] = system: EKVX NSCLC
[36] = system: NCI-H23 lung
[37] = system: HT29 colon
[38] = system: OVCAR-5 ovarian
[39] = system: HCT-15 colon
[40] = system: HS 578T breast
[41] = system: MALME-3M melanoma
[42] = system: SK-MEL-2 melanoma
[43] = system: OVCAR-3 ovarian
[44] = system: NCI-H226 lung
[45] = system: RXF 393 renal
[46] = system: U251 CNS
[47] = system: SK-MEL-5 melanoma
[48] = system: ACHN renal
[49] = system: T-47D breast
[50] = system: HOP-62 NSCLC
[51] = system: LOX IMVI melanoma
[52] = system: NCI/ADR-RES ovarian
[53] = system: UACC-257 melanoma
[54] = system: MDA-MB-231 breast
[55] = system: UACC-62 melanoma
[56] = system: NCI-H460 lung
[57] = system: OVCAR-8 ovarian
[58] = system: M14 melanoma

CN(C)S(=O)(=O)c1ccc(NC(=O)COC(=O)c2ccc(S(=O)(=O)N3CCCCC3)cc2)cc1
GI50 [1]: > 100 µM | TGI [1]: > 100 µM | GI50 [2]: > 100 µM | TGI [2]: > 100 µM | GI50 [3]: > 100 µM | TGI [3]: > 100 µM | GI50 [4]: > 100 µM | TGI [4]: > 100 µM | GI50 [5]: > 100 µM | TGI [5]: > 100 µM | GI50 [6]: > 100 µM | TGI [6]: > 100 µM | GI50 [7]: > 100 µM | TGI [7]: > 100 µM | GI50 [8]: > 100 µM | TGI [8]: > 100 µM | GI50 [9]: > 100 µM | TGI [9]: > 100 µM | GI50 [10]: > 100 µM | TGI [10]: > 100 µM | GI50 [11]: > 100 µM | TGI [11]: > 100 µM | GI50 [12]: > 100 µM | TGI [12]: > 100 µM | GI50 [13]: > 100 µM | TGI [13]: > 100 µM | GI50 [14]: > 100 µM | TGI [14]: > 100 µM | GI50 [15]: > 100 µM | TGI [15]: > 100 µM | GI50 [16]: > 100 µM | TGI [16]: > 100 µM | GI50 [17]: > 100 µM | TGI [17]: > 100 µM | GI50 [18]: > 100 µM | TGI [18]: > 100 µM | GI50 [19]: > 100 µM | TGI [19]: > 100 µM | GI50 [20]: > 100 µM | TGI [20]: > 100 µM | GI50 [21]: > 100 µM | TGI [21]: > 100 µM | GI50 [22]: > 100 µM | TGI [22]: > 100 µM | GI50 [23]: > 100 µM | TGI [23]: > 100 µM | GI50 [24]: > 100 µM | TGI [24]: > 100 µM | GI50 [25]: > 100 µM | TGI [25]: > 100 µM | GI50 [26]: > 100 µM | TGI [26]: > 100 µM | GI50 [27]: > 100 µM | TGI [27]: > 100 µM | GI50 [28]: > 100 µM | TGI [28]: > 100 µM | GI50 [29]: > 100 µM | TGI [29]: > 100 µM | GI50 [30]: > 100 µM | TGI [30]: > 100 µM | GI50 [31]: > 100 µM | TGI [31]: > 100 µM | GI50 [32]: > 100 µM | TGI [32]: > 100 µM | GI50 [33]: > 100 µM | TGI [33]: > 100 µM | GI50 [34]: > 100 µM | TGI [34]: > 100 µM | GI50 [35]: > 100 µM | TGI [35]: > 100 µM | GI50 [36]: > 100 µM | TGI [36]: > 100 µM | GI50 [37]: > 100 µM | TGI [37]: > 100 µM | GI50 [38]: > 100 µM | TGI [38]: > 100 µM | GI50 [39]: > 100 µM | TGI [39]: > 100 µM | GI50 [40]: > 100 µM | TGI [40]: > 100 µM | GI50 [41]: > 100 µM | TGI [41]: > 100 µM | GI50 [42]: > 100 µM | TGI [42]: > 100 µM | GI50 [43]: > 100 µM | TGI [43]: > 100 µM | GI50 [44]: > 100 µM | TGI [44]: > 100 µM | GI50 [45]: > 100 µM | TGI [45]: > 100 µM | GI50 [46]: > 100 µM | TGI [46]: > 100 µM | GI50 [47]: > 100 µM | TGI [47]: > 100 µM | GI50 [48]: > 100 µM | TGI [48]: > 100 µM | GI50 [49]: > 100 µM | TGI [49]: > 100 µM | GI50 [50]: > 100 µM | TGI [50]: > 100 µM | GI50 [51]: > 100 µM | TGI [51]: > 100 µM | GI50 [52]: > 100 µM | TGI [52]: > 100 µM | GI50 [53]: > 100 µM | TGI [53]: > 100 µM | GI50 [54]: > 100 µM | TGI [54]: > 100 µM | GI50 [55]: > 100 µM | TGI [55]: > 100 µM | GI50 [56]: > 100 µM | TGI [56]: > 100 µM

COC(=O)[C@H](Cc1cn(C)cn1)NC(=O)[C@H](Cc1c[nH]c2ccccc12)NC(=O)Nc1cc(C(F)(F)F)cc(C(F)(F)F)c1
GI50 [1]: > 10 µM | TGI [1]: > 10 µM | GI50 [2]: > 10 µM | TGI [2]: > 10 µM | GI50 [3]: > 10 µM | TGI [3]: > 10 µM | GI50 [4]: > 10 µM | TGI [4]: > 10 µM | GI50 [5]: > 10 µM | TGI [5]: > 10 µM | GI50 [6]: > 10 µM | TGI [6]: > 10 µM | GI50 [7]: > 10 µM | TGI [7]: > 10 µM | GI50 [8]: > 10 µM | TGI [8]: > 10 µM | GI50 [9]: > 10 µM | TGI [9]: > 10 µM | GI50 [10]: > 10 µM | TGI [10]: > 10 µM | GI50 [57]: > 10 µM | TGI [57]: > 10 µM | GI50 [11]: > 10 µM | TGI [11]: > 10 µM | GI50 [12]: > 10 µM | TGI [12]: > 10 µM | GI50 [13]: > 10 µM | TGI [13]: > 10 µM | GI50 [14]: > 10 µM | TGI [14]: > 10 µM | GI50 [15]: > 10 µM | TGI [15]: > 10 µM | GI50 [16]: > 10 µM | TGI [16]: > 10 µM | GI50 [17]: > 10 µM | TGI [17]: > 10 µM | GI50 [18]: > 10 µM | TGI [18]: > 10 µM | GI50 [19]: > 10 µM | TGI [19]: > 10 µM | GI50 [20]: > 10 µM | TGI [20]: > 10 µM | GI50 [21]: > 10 µM | TGI [21]: > 10 µM | GI50 [22]: > 10 µM | TGI [22]: > 10 µM | GI50 [23]: > 10 µM | TGI [23]: > 10 µM | GI50 [24]: > 10 µM | TGI [24]: > 10 µM | GI50 [25]: > 10 µM | TGI [25]: > 10 µM | GI50 [26]: > 10 µM | TGI [26]: > 10 µM | GI50 [27]: > 10 µM | TGI [27]: > 10 µM | GI50 [28]: > 10 µM | TGI [28]: > 10 µM | GI50 [29]: > 10 µM | TGI [29]: > 10 µM | GI50 [30]: > 10 µM | TGI [30]: > 10 µM | GI50 [31]: > 10 µM | TGI [31]: > 10 µM | GI50 [32]: > 10 µM | TGI [32]: > 10 µM | GI50 [58]: > 10 µM | TGI [58]: > 10 µM | GI50 [33]: > 10 µM | TGI [33]: > 10 µM | GI50 [34]: > 10 µM | TGI [34]: > 10 µM | GI50 [36]: > 10 µM | TGI [36]: > 10 µM | GI50 [37]: > 10 µM | TGI [37]: > 10 µM | GI50 [38]: > 10 µM | TGI [38]: > 10 µM | GI50 [39]: > 10 µM | TGI [39]: > 10 µM | GI50 [40]: > 10 µM | TGI [40]: > 10 µM | GI50 [41]: > 10 µM | TGI [41]: > 10 µM | GI50 [42]: > 10 µM | TGI [42]: > 10 µM | GI50 [43]: > 10 µM | TGI [43]: > 10 µM | GI50 [44]: > 10 µM | TGI [44]: > 10 µM | GI50 [45]: > 10 µM | TGI [45]: > 10 µM | GI50 [46]: > 10 µM | TGI [46]: > 10 µM | GI50 [47]: > 10 µM | TGI [47]: > 10 µM | GI50 [48]: > 10 µM | TGI [48]: > 10 µM | GI50 [49]: > 10 µM | TGI [49]: > 10 µM | GI50 [50]: > 10 µM | TGI [50]: > 10 µM | GI50 [51]: > 10 µM | TGI [51]: > 10 µM | GI50 [52]: > 10 µM | TGI [52]: > 10 µM | GI50 [53]: > 10 µM | TGI [53]: > 10 µM | GI50 [54]: > 10 µM | TGI [54]: > 10 µM | GI50 [55]: > 10 µM | TGI [55]: > 10 µM | GI50 [56]: > 10 µM | TGI [56]: > 10 µM
